These results are taken from ChEMBL document CHEMBL6083278, “Unnatural Amino Acids: Strategies, Designs, and Applications in Medicinal Chemistry and Drug Discovery” (J Med Chem, 2024).

A short description of data set [1]: Inhibition of GABA-A receptor (unknown origin). Details: species or system Homo sapiens.
Data set [2] has as its target Melanocortin receptor 3 (Homo sapiens, UniProt P41968). The data set can be described thus: Inhibition of MC3R (unknown origin).
Data set [3] concerns the target G-protein coupled receptor 52 (Homo sapiens, UniProt Q9Y2T5). The data set can be described thus: Agonist activity at human GPR52 expressed in CHO cells assessed as increase in intracellular cAMP level incubated for 30 mins by Alphascreen assay. Type of data set: functional, cell-based. In general terms: Cyclic AMP is a second messenger, typically raised through Gs and lowered through Gi signalling.

In data set [4] the target is Replicase polyprotein 1a (Severe acute respiratory syndrome-related coronavirus, UniProt P0C6U8). The data set can be described thus: Inhibition of SARS-CoV MPro using Dabcyl-KTSAVLQSGFRKM-E(Edans)-NH2 as substrate preincubated for 15 mins followed by substrate addition measured after 30 mins by FRET assay.
Data set [5] deals with Candida albicans. In words: Antifungal activity against Candida albicans ATCC 10231 assessed as fungal growth inhibition. In kind it is functional, organism-based.
Data set [6] deals with Cryptococcus neoformans. In words: Antifungal activity against Cryptococcus neoformans ATCC 32045 assessed as inhibition of fungal growth incubated for 72 hrs by broth microdilution method. In kind it is functional. Background: In broth dilution the organism is exposed to a series of concentrations in liquid medium.
The subject of data set [7] is Enterococcus faecalis. The data set can be described thus: Antibacterial activity against Enterococcus faecalis ATCC 29212 assessed as bacterial growth inhibition by agar diffusion assay. Type of data set: functional. In general terms: Agar diffusion results depend on both activity and mobility in agar.
Data set [8] has as its system Staphylococcus aureus. The data set can be described thus: Antibacterial activity against Staphylococcus aureus assessed as reduction in microbial growth by CLSI based broth microdilution method. In kind it is functional.
The subject of data set [9] is Escherichia coli. The data set can be described thus: Antimicrobial activity against Escherichia coli ATCC 25922 assessed as reduction in microbial growth after 24 hrs by CLSI based Mueller-Hinton broth assay. In kind it is functional.
In data set [10] the test system is Klebsiella pneumoniae. The data set can be described thus: Antimicrobial activity against Klebsiella pneumoniae ATCC 13882 assessed as reduction in microbial growth after 24 hrs by CLSI based Mueller-Hinton broth assay. Type of data set: functional.
For data set [11], the system named is Pseudomonas aeruginosa. In words: Antimicrobial activity against Pseudomonas aeruginosa ATCC 27853 assessed as reduction in microbial growth after 24 hrs by CLSI based Mueller-Hinton broth assay. In kind it is functional.
In data set [12] the test system is Acinetobacter baumannii. In words: Antibacterial activity against Acinetobacter baumannii ATCC 17978 assessed as reduction in microbial growth after 24 hrs by CLSI based Mueller-Hinton broth assay. In kind it is functional.
The test system of data set [13] is Escherichia coli. The data set can be described thus: Antibacterial activity against Escherichia coli K12 assessed as reduction in bacterial growth incubated for 16 hrs by Broth micro-dilution assay. Type of data set: functional.
In data set [14] the test system is Staphylococcus aureus. In words: Antibacterial activity against Staphylococcus aureus ATCC 25923 assessed as reduction in bacterial growth incubated for 18 to 20 hrs by broth microdilution assay. Type of data set: functional. As to conditions: time 18-20 hrs.
The test system of data set [15] is Pseudomonas aeruginosa. The data set can be described thus: Antibacterial activity against Pseudomonas aeruginosa PAO1 assessed as bacterial growth inhibition by CLSI protocol based microdilution method. In kind it is functional.
Data set [16] relates to Acinetobacter baumannii. In words: Antibacterial activity against Acinetobacter baumannii ATCC 19606 assessed as reduction in microbial growth after 16 hrs by broth microdilution method. In kind it is functional.
Data set [17] concerns the target Mu-type opioid receptor (Homo sapiens, UniProt P35372). The data set can be described thus: Agonist activity at MOR (unknown origin). Type of data set: functional.
In data set [18] the target is Amyloid-beta precursor protein (Homo sapiens) (UniProt P05067). The data set can be described thus: Inhibition of amyloid beta42 (unknown origin) aggregation at 10 uM measured after 5 mins by ThT fluorescence based assay relative to control.
Sequence of Amyloid-beta precursor protein (Homo sapiens) (P05067 whole entry): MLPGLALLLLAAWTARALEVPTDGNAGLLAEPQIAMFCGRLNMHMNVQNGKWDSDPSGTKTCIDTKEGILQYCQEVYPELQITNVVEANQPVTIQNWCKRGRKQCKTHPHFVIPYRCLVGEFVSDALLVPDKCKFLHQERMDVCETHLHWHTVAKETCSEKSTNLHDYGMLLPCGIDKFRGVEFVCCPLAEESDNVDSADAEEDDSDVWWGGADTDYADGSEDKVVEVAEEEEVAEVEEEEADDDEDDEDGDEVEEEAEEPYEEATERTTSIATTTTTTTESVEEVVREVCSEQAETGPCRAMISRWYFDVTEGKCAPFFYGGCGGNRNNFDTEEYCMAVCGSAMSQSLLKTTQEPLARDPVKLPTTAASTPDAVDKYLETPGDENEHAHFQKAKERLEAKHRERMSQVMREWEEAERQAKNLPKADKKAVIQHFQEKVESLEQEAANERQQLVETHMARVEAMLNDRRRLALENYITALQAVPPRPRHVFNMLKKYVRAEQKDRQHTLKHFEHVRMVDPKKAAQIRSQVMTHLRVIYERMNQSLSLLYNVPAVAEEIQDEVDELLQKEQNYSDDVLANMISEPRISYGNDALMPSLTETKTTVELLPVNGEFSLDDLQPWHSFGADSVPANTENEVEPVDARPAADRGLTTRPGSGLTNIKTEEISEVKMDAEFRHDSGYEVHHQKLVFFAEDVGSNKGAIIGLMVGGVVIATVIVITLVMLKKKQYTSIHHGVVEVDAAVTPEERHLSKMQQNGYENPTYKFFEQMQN
The test system of data set [19] is HeLa. The data set can be described thus: Antiproliferative activity against human HeLa cells assessed as reduction in cell viability by MTT assay. In kind it is functional, cell-based.
Data set [20] in a line: Half life in human plasma. Type of data set: ADME, cell-free.
The target in data set [21] is Tyrosine-protein kinase FRK (Homo sapiens, UniProt P42685). In words: Inhibition of FRK (unknown origin).
Sequence of Tyrosine-protein kinase FRK (P42685 whole entry): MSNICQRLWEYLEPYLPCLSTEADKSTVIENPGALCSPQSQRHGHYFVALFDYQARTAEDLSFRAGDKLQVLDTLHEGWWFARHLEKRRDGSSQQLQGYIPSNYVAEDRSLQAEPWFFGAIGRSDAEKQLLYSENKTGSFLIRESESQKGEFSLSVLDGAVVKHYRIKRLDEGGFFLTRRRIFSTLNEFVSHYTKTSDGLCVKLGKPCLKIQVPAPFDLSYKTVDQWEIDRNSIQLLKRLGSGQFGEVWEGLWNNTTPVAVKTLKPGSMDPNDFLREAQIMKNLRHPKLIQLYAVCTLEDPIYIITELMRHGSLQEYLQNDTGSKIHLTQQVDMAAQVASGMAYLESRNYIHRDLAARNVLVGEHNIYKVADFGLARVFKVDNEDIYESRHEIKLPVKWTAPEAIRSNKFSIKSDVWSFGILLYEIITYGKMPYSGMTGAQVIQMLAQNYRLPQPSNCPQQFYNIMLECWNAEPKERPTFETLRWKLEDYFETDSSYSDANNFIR
The subject of data set [22] is Escherichia coli. The data set can be described thus: Antibacterial activity against Escherichia coli ATCC 25922 assessed as bacterial growth inhibition. In kind it is functional.
Data set [23] in a line: Binding affinity to SETD8 (unknown origin) assessed as dissociation constant. More on the design: species or system Homo sapiens.

Values after ≈ are worked out from the molar mass of the structure shown. Bridge positions count the residues as written; N and C are the ends. Square brackets hold non-standard residues; d marks the D form. Peptide text beside a SMILES is read from it. * marks the point of attachment. Bip = N[C@@H](Cc1ccc(-c2ccccc2)cc1)C(=O)O; dPhe(4-I) = N[C@H](Cc1ccc(I)cc1)C(=O)O; NMe2Val = CC(C)[C@@H](C(=O)*)N(C)C; NMeI = CC[C@H](C)[C@H](NC)C(=O)O; NMeT = CN[C@H](C(=O)O)[C@@H](C)O; 4Pal = N[C@@H](Cc1ccncc1)C(=O)O; Tic = O=C(O)[C@@H]1Cc2ccccc2CN1; NMeL = CN[C@@H](CC(C)C)C(=O)O; S5 = C=CCCC[C@](C)(N)C(=O)O; Hiv = CC(C)[C@H](O)C(=O)O; NMeS = CN[C@@H](CO)C(=O)O; Octanoyl = CCCCCCCC(=O)*; dNMeA = CN[C@H](C)C(=O)O; Sar = CNCC(=O)O

Sequence of Melanocortin receptor 3 (P41968 whole entry): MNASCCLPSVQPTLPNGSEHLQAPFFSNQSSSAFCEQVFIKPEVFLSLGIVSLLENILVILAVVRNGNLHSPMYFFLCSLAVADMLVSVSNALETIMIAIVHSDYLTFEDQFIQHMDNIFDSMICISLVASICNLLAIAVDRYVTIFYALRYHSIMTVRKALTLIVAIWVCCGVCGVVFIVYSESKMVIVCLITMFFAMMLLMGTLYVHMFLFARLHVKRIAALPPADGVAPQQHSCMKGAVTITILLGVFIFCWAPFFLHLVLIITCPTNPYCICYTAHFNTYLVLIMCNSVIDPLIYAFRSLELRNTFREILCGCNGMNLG
Sequence of Mu-type opioid receptor (P35372 whole entry): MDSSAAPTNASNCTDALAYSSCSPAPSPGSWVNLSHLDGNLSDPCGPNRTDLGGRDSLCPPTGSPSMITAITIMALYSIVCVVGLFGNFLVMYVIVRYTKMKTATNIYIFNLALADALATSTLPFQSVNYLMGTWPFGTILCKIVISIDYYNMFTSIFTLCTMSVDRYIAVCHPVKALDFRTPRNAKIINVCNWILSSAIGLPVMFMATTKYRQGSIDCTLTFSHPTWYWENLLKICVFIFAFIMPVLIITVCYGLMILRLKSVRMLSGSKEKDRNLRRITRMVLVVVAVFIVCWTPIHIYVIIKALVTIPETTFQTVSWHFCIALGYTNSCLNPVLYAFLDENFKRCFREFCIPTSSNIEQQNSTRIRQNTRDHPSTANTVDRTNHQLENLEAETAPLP
Sequence of G-protein coupled receptor 52 (Q9Y2T5 whole entry): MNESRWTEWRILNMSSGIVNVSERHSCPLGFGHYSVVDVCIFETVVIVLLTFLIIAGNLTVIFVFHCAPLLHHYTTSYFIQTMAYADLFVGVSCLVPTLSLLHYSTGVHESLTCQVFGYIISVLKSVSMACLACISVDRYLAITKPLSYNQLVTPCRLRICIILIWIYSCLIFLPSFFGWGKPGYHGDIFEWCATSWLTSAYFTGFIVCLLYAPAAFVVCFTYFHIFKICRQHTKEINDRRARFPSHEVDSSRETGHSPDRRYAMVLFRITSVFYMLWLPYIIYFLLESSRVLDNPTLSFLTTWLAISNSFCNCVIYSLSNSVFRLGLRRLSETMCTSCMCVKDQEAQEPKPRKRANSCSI

`N[C@H]1C[C@@H](C(=O)O)C[C@@H]1F`: the IC50 in data set [1] was 50 nM.

Molecule `CC(=O)N[C@@H](Cc1cnc[nH]1)C(=O)N[C@H](Cc1ccccc1)C(=O)N[C@@H](CCCN=C(N)N)C(=O)N[C@@H](Cc1c[nH]c2ccccc12)C(N)=O` had an IC50 in data set [2] of 560 nM.

Consider `CSCC[C@H](NC(=O)[C@@H]1CCCN1C(=O)CNC(=O)[C@H](CCCCN)NC(=O)[C@H](Cc1cnc[nH]1)NC(=O)[C@H](CO)NC(=O)[C@H](CC(C)C)NC(=O)[C@H](CCCNC(=N)N)NC(=O)[C@@H]1CCCN1C(=O)[C@H](CCCNC(=N)N)NC(=O)[C@@H](N)CCC(N)=O)C(=O)N1CCC[C@H]1C(=O)N[C@@H](Cc1ccccc1)C(=O)O`, for which the EC50 in [3] was 1.4 nM.

Consider `N[C@H]1C=C(C(=O)O)C[C@@H]1F`, for which the concentration for half-maximal inhibition (IC50) in data set [1] came out at 20 nM.

With `O=C[C@H](C[C@@H]1CCNC1=O)NC(=O)[C@H](Cc1cccc(F)c1)NC(=O)c1cc2ccccc2[nH]1`, in data set [4], the midpoint of inhibition, the IC50, lay at 40 nM.

Take `O=C[C@H](C[C@@H]1CCNC1=O)NC(=O)[C@H](CC1CCCCC1)NC(=O)c1cc2ccccc2[nH]1`: in [4], the IC50 stood at 53 nM.

For `Cc1ccc(C[C@H](NC(=O)[C@@H](Cc2ccccc2)NC(=O)[C@@H](Cc2c[nH]c3ccccc23)NC(=O)[C@@H](N)CCCN)C(=O)N[C@H](Cc2ccccc2)C(=O)N[C@@H](Cc2cn(Cc3ccccc3)cn2)C(N)=O)cc1`, the IC50 in data set [5] worked out at 15.3 µg/mL (≈ 15.3 µM).

In the case of `CCCCc1ccc(-n2cnc(C[C@H](NC(=O)[C@H](Cc3c[nH]c4ccccc34)NC(=O)[C@@H](N)Cc3cn(-c4ccc(CCCC)cc4)cn3)C(=O)NCc3ccccc3)c2)cc1`, in [6], the MIC was 2.46 µg/mL (≈ 2.96 µM).

Consider `CC(C)(C)c1cc(Cn2cnc(C[C@H](NC(=O)[C@@H](N)Cc3c[nH]c4ccccc34)C(=O)NCc3ccccc3)c2)cc(C(C)(C)C)c1`, for which the MIC in data set [7] worked out at 8 µg/mL (≈ 12.6 µM); in data set [8], 4.4 µg/mL.

`CC(C)C[C@@H]1NC(=O)[C@@H](Cc2ccccc2)NC(=O)[C@@H](CCN)NC(=O)[C@@H](NC(=O)[C@H](CCN)NC(=O)[C@@H](NC(=O)[C@H](CCN)NC(=O)C[C@H](CN)C2CCCCC2)[C@@H](C)O)CCNC(=O)[C@H]([C@@H](C)O)NC(=O)[C@H](CCN)NC(=O)[C@H](CCN)NC1=O`: the MIC in data set [9] was determined as 0.06 µg/mL; in data set [10], 0.125 µg/mL; in data set [11] it was 0.06 µg/mL; in data set [12], 0.25 µg/mL.

In the case of `CC[C@H](C)[C@H](NC(=O)[C@H](CC1CCCCC1)NC(=O)[C@@H](Cc1c[nH]c2ccccc12)NC(=O)[C@@H](N)CCCN)C(=O)N[C@H](Cc1ccccc1)C(=O)N[C@@H](Cc1cn(Cc2ccccc2)cn1)C(N)=O`, in [5], the IC50 was determined as 1 µg/mL (≈ 1.04 µM).

For `CC(=O)N[C@@H](Cc1c[nH]cn1)C(=O)N[C@H](Cc1ccc(I)cc1)C(=O)N[C@@H](CCCNC(=N)N)C(=O)N1Cc2ccccc2C[C@H]1C(N)=O` (Ac-H[dPhe(4-I)]R[Tic]-NH2), the IC50 in [2] stood at 290 nM.

In [2], `CC(=O)N[C@@H](Cc1ccncc1)C(=O)N[C@H](Cc1ccc(I)cc1)C(=O)N[C@@H](CCCNC(=N)N)C(=O)N[C@@H](Cc1c[nH]c2ccccc12)C(N)=O` (Ac-[4Pal][dPhe(4-I)]RW-NH2) had an IC50 of 7 nM.

`C=CCCC[C@](C)(NC(=O)[C@H](CCCCN)NC(=O)[C@H](CC(C)C)NC(=O)[C@@H](N)Cc1ccccc1)C(=O)N[C@@H](CC(C)C)C(=O)N[C@@H](CCCCN)C(=O)N[C@@H](CCCCN)C(=O)N[C@@H](CC(C)C)C(=O)N[C@@H](CC(C)C)C(N)=O` (H-FLK[S5]LKKLL-NH2): the MIC was determined as 8 µg/mL (≈ 7.01 µM) in data set [13], 4 µg/mL (≈ 3.51 µM) in [14], 8 µg/mL (≈ 7.01 µM) in data set [15] and 4 µg/mL in data set [16].

In data set [17], `CN(CC(=O)O)C(=O)[C@H](Cc1ccccc1)NC(=O)[C@@H](CCCN=C(N)N)NC(=O)[C@@H](N)Cc1ccc(O)cc1` (H-Y[dR]F[Sar]-OH) registered an EC50 of 90 nM.

The molecule `CC[C@H](C)[C@H](NC(=O)[C@@H](NC(=O)[C@H](N)Cc1ccccc1)C(C)C)C(=O)N[C@@H](C)C(N)=O` (H-[dF]VIA-NH2) returned an inhibition in data set [18] of 100%.

For the molecule `CC[C@H](C)[C@H]1C(=O)N[C@@H](C)C(=O)N(C)[C@@H](CC(C)C)C(=O)N[C@@H](Cc2ccc(OC)cc2)C(=O)N(C)[C@H](C)C(=O)O[C@H](C)[C@H](N(C)C(=O)[C@H](CC(C)C)N(C)C(=O)[C@H](COC)N(C)C(=O)[C@@H](OC(=O)[C@H](C(C)C)N(C)C)C(C)C)C(=O)N(C)[C@@H](COC)C(=O)N1C` (NMe2Val-[Hiv][NMeS](Me)[NMeL][NMeT][NMeS](Me)[NMeI]A[NMeL]Y(Me)[dNMeA]; ester 4-C), the IC50 in data set [19] turned out to be 1.4 nM.

`CCCCCCCC(=O)N[C@@H](Cc1cnc[nH]1)C(=O)N[C@H](Cc1ccccc1)C(=O)N[C@@H](CCCNC(=N)N)C(=O)N[C@@H](Cc1ccc(-c2ccccc2)cc1)C(N)=O` (Octanoyl-H[dF]R[Bip]-NH2) had an IC50 in data set [2] of 50 nM.

Turning to `N=C(N)NCCC[C@@H]1C(=O)N[C@@H](Cc2ccccc2)C(=O)N(CC(N)=O)CCNC(=O)NCCCCCCN1C(=O)[C@@H](N)Cc1ccc(O)cc1` (mixture of isomers), a half-maximal effect in [17] (EC50) was put at 46 nM.

In turn, `CC[C@H](C)[C@H]1C(=O)N2CCC[C@H]2C(=O)O[C@H](C(C)(C)C)C[C@@H](C)C[C@H](O)[C@H](C)C2=N[C@@H](CCC(=O)N[C@@H](Cc3ccc(OC)cc3)C(=O)N(C)[C@@H](C)C(=O)N1C)CS2` [APRATOXIN S4] returned an IC50 in data set [4] of 170 nM.

With `C[C@@H](O)[C@@H]1NC(=O)[C@H](CCCCN)NC(=O)[C@@H](Cc2c[nH]c3ccccc23)NC(=O)[C@H](Cc2ccccc2)NC(=O)[C@@H](NC(=O)[C@H](N)Cc2ccccc2)CSSC[C@@H](C(=O)N[C@H](CO)[C@@H](C)O)NC1=O` [OCTREOTIDE], the half-life in [20] is 1.5 h.

In the case of `Nc1nc2[nH]cc(CCc3ccc(C(=O)N[C@@H](CCC(=O)O)C(=O)O)cc3)c2c(=O)[nH]1` [PEMETREXED], in data set [21], the IC50 was 42 nM.

Consider H-FLKLLKKLL-NH2, for which the MIC in data set [13] stood at 32 µg/mL; in data set [14], 16 µg/mL; in data set [15], 8 µg/mL; in [16], 16 µg/mL.

In the case of H-KKKKKKAAFAAWAAFAA-NH2, in data set [22], the MIC was 1.6 µM.

H-KRHRKVLR-OH: in [23], the Kd was 46000 nM.

As a reminder, the IC50 is the concentration that inhibits the measured activity by half. Usually EC50 stands for the concentration at which the effect is half-maximal. Broadly, the MIC is the lowest concentration that inhibits growth of the organism. Usually inhibition stands for the change of the read-out against control, counted positive when it falls. High values mean a strong effect, low ones a weak effect. Broadly, the half-life is how long it takes for the measured level to halve. As usually defined, the Kd is the concentration at which binding is half-saturated.
